Where a name gives a salt, the structure may show the parent alone. Some results are limits rather than exact numbers.

Test [1] deals with Rat recombinant PDE10a (rPDE10a) (Rattus norvegicus (Rat), UniProt Q9QYJ6). In words: In vitro assay PDE10a (rat recombinant PDE10a, SPA). It counts as biochemical. Particulars: 60 nM cAMP, 60 min at rt, read-out: rPDE10a2 IC50. Here is the method: Rat recombinant PDE10a (rPDE10a) was expressed in Sf9 cells using a recombinant rPDE10a baculovirus construct. Cells were harvested after 48 h of infection and the rPDE10a protein was purified by metal chelate chromatography on Ni-sepharose 6FF. Tested compounds were dissolved and diluted in 100% DMSO to a concentration 100 fold of the final concentration in the assay. Compound dilutions (0.4 μL) were added in 384 well plates to 20 μL of incubation buffer (50 mM Tris pH 7.8, 8.3 mM MgCl2, 1.7 mM EGTA). 10 μL of rPDE10a enzyme in incubation buffer was added and the reaction was started by addition of 10 μL substrate to a final concentration of 60 nM cAMP and 0.008 μCi ^3H-cAMP. The reaction was incubated for 60 min at rt. After incubation, the reaction was stopped with 20 μL of 17.8 mg/mL PDE SPA beads. After sedimentation of the beads during 30 min the radioactivity was measured in a Perkin Elmer Topcount scintillation counter and results were expressed as cpm. For blank values the enzyme was omitted from the reaction and replaced by incubation buffer. Control values were obtained by addition of a final concentration of 1% DMSO instead of compound.
Chain of Rat recombinant PDE10a (rPDE10a) (Q9QYJ6 whole entry): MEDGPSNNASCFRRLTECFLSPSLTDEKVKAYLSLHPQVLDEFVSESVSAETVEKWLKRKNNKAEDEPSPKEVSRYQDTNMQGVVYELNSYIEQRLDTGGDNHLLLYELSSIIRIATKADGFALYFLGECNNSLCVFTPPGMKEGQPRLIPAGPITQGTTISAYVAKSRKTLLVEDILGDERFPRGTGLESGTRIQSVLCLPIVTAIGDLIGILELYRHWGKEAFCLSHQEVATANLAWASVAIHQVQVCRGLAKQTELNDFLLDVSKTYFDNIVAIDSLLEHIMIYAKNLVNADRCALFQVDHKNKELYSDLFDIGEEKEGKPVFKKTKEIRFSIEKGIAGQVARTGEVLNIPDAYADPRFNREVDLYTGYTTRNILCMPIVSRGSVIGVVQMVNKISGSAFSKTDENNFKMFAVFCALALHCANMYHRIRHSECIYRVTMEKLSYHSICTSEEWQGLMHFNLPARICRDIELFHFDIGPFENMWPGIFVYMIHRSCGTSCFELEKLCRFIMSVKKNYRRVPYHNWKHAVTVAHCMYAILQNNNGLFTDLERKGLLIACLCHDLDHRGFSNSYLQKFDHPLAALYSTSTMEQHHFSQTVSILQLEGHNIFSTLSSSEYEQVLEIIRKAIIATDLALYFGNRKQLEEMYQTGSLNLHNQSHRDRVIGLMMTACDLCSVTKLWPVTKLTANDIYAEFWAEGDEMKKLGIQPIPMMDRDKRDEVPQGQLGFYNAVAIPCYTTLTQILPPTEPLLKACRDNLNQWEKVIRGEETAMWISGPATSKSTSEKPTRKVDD

Test [2] deals with Human recombinant PDE10A2 (Homo sapiens (Human), UniProt Q9Y233). In words: In vitro hPDE10a (human recombinant PDE10A2, scintillation proximity assay). The format is biochemical. Particulars: human recombinant PDE10A2, 60 nM cAMP, 60 min at room temperature; read-out: hPDE10a2 IC50. Here is the method:
Human recombinant PDE10A2 was expressed in Sf9 cells, using a recombinant baculovirus construct containing the full length sequence containing a 6×His sequence following the start Met to allow metal affinity purification of the recombinant protein. Cells were harvested and the phosphodiesterase protein was purified by metal chelate chromatography on Ni-sepharose 6FF.
The affinity of the compounds of Formula (I) for phophodiesterases (PDE) was measured by a scintillation proximity assay (SPA). PDE Yttrium Silicate SPA beads allow PDE activity to be measured by direct binding of the primary phosphate groups of non-cyclic AMP or GMP to the beads via a complex iron chelation mechanism. The amount of bound tritiated product ([^3H]-AMP) is measured by liquid scintillation counting.
The compounds were dissolved and diluted in 100% DMSO in polystyrene plates to a concentration of 100-fold the final concentration in the assay. Human PDE10A enzyme solution (10 μL) was added to 20 μL, of incubation buffer (50 mM Tris pH 7.8, 8.3 mM MgCl2, 1.7 mM EGTA), 10 μL, substrate solution consisting of a mixture of non-tritiated and tritiated substrate (60 nM cAMP, 0.008 μCi ^3H-cAMP), and 0.4 μL, compound in 100% DMSO in a 384-well plate, and incubated for 60 min at room temperature. After incubation, the reaction was stopped with 20 μL, of stop solution, consisting of PDE SPA beads (17.8 mg beads/mL in 18 mM zinc sulphate). After sedimentation of the beads for 30 min, the radioactivity was measured in a Perkin Elmer Topcount scintillation counter and results were expressed as cpm. To measure the low control, no enzyme was added to the reaction mixture.
Data were calculated as the percentage of inhibition of total activity measured in the absence of test compound (% control).
A general note: SPA uses beads or plates that emit light when radiolabelled molecules are held near them.

Chain of Human recombinant PDE10A2 (Q9Y233 267-1055): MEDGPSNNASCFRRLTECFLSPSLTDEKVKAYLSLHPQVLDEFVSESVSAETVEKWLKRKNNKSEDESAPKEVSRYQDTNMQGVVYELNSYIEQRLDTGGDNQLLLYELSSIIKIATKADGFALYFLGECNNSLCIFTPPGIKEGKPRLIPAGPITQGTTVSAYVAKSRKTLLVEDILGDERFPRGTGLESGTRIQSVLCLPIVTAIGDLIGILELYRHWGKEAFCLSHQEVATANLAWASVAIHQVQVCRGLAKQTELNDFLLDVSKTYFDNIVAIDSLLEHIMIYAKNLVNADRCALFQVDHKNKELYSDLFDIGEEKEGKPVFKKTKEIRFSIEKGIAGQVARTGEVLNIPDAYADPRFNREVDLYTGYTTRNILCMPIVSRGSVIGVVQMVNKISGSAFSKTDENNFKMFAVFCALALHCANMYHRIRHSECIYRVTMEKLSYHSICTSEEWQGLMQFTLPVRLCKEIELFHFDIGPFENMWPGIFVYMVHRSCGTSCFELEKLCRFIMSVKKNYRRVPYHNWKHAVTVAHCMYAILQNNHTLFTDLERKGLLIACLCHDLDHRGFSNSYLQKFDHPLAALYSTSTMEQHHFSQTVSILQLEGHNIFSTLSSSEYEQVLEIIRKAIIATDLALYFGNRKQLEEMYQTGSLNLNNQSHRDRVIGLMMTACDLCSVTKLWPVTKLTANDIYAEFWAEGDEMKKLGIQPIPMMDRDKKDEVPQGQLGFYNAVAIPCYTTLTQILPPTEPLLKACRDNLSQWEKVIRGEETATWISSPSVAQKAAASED

As usually defined, the IC50 is the concentration at which inhibition is half-maximal. Consider `O=c1ncn(-c2ccc(-c3cnc(N4CCOCC4)c4nc(/C=C/c5ccc6ccccc6n5)cn34)cc2)[nH]1` [Cpd 56, (E)-1-(4-(8-Morpholino-2-(2-(quinolin-2-yl)vinyl)imidazo[1,2-a]pyrazin-5-yl)phenyl)-1,2-dihydro-1,2,4-triazol-3-one], for which the IC50 in test [1] is 15 nM; in test [2] it was 14 nM.

As to `O=C1NC(=O)C(c2ccc(-c3cnc(N4CCOCC4)c4nc(/C=C/c5ccc6ccccc6n5)cn34)cc2)N1` (stereo not shown) [Cpd 57, (E)-5-(4-(8-Morpholino-2-(2-(quinolin-2-yl)vinyl)imidazo[1,2-a]pyrazin-5-yl)phenyl)imidazolidine-2,4-dione 2,2,2-trifluoroacetate], the results for the half-inhibitory concentration (IC50) in test [1] and in test [2] were 48 nM and 46 nM, respectively.

As for `O=c1[nH]ncn1-c1ccc(-c2cnc(N3CCOCC3)c3nc(/C=C/c4ccc5ccccc5n4)cn23)cc1` [Cpd 58, (E)-4-(4-(8-morpholino-2-(2-(quinolin-2-yl)vinyl)imidazo[1,2-a]pyrazin-5-yl)phenyl)-1H-1,2,4-triazol-5(4H)-one], the figures for the 50% inhibitory concentration (IC50) in test [1] and in test [2] were 132 nM and 91 nM, respectively.

Take `O=c1[nH]c2ccc(-c3cnc(N4CCOCC4)c4nc(CCc5ccc6ccccc6n5)cn34)cc2o1` [Cpd 64, 6-(8-morpholino-2-(2-(quinolin-2-yl)ethyl)imidazo[1,2-a]pyrazin-5-yl)benzo[d]oxazol-2(3H)-one trifluoroacetic acid salt]: the half-maximal inhibitory concentration (IC50) came out at 22 nM in test [1] and 13 nM in test [2].

As for `O=c1[nH]ncn1-c1ccc(-c2cnc(N3CCOCC3)c3nc(CCc4ccc5ccccc5n4)cn23)cc1` [Cpd 65, 4-(4-(8-Morpholino-2-(2-(quinolin-2-yl)ethyl)imidazo[1,2-a]pyrazin-5-yl)phenyl)-1H-1,2,4-triazol-5(4H)-one], the values for the concentration for half-maximal inhibition (IC50) in test [1] and in test [2] were 60 nM and 38 nM, respectively.

Consider `O=C(O)CNc1ccc(-c2cnc(N3CCOCC3)c3nc(/C=C/c4ccc5ccccc5n4)cn23)cn1` [Cpd 66, (E)-2-(5-(8-Morpholino-2-(2-(quinolin-2-yl)vinyl)imidazo[1,2-a]pyrazin-5-yl)pyridin-2-ylamino)acetic acid trifluoroacetic acid salt], for which the half-inhibitory concentration (IC50) in test [1] is 3 nM; in test [2] it was 2 nM.

On to `c1ccc2nc(CCc3cn4c(-c5ccc(-c6nnc[nH]6)nc5)cnc(N5CCOCC5)c4n3)ccc2c1` [Cpd 67, 4-(5-(6-(4H-1,2,4-Triazol-3-yl)pyridin-3-yl)-2-(2-(quinolin-2-yl)ethyl)imidazo[1,2-a]pyrazin-8-yl)morpholine], for which the half-maximal inhibitory concentration (IC50) amounted to 4 nM in test [1] and 5 nM in test [2].

`c1ccc2nc(SCc3cn4c(-c5ccc(-c6nnn[nH]6)nc5)cnc(N5CCOCC5)c4n3)ccc2c1` [Cpd 70, 4-(5-(6-(1H-Tetrazol-5-yl)pyridin-3-yl)-2-((quinolin-2-ylthio)methyl)imidazo[1,2-a]pyrazin-8-yl)morpholine]: the values for the half-inhibitory concentration (IC50) in test [1] and in test [2] were 1 nM and 2 nM, respectively.

For the compound `O=C(Nc1ccc(-c2cnc(N3CCOCC3)c3nc(/C=C/c4ccc5ccccc5n4)cn23)cc1)N(CCO)CCO` [Cpd 71, (E)-1,1-bis(2-hydroxyethyl)-3-(4-(8-morpholino-2-(2-(quinolin-2-yl)vinyl)imidazo[1,2-a]pyrazin-5-yl)phenyl)urea], the IC50 is 63 nM in test [1] and 44 nM in test [2].

Turning to `O=C(NCCO)Nc1ccc(-c2cnc(N3CCOCC3)c3nc(/C=C/c4ccc5ccccc5n4)cn23)cc1` [Cpd 72, (E)-1-(2-Hydroxyethyl)-3-(4-(8-morpholino-2-(2-(quinolin-2-yl)vinyl)imidazo[1,2-a]pyrazin-5-yl)phenyl)urea], the half-inhibitory concentration (IC50) was determined as 46 nM in test [1] and 31 nM in test [2].

For the compound `O=S(=O)(NCCO)c1ccc(-c2cnc(N3CCOCC3)c3nc(/C=C/c4ccc5ccccc5n4)cn23)cc1` [Cpd 73, (E)-N-(2-Hydroxyethyl)-4-(8-morpholino-2-(2-(quinolin-2-yl)vinyl)imidazo[1,2-a]pyrazin-5-yl)benzenesulfonamide], the IC50 in test [1] worked out at 40 nM; in test [2], 26 nM.

As for `Oc1nc(-c2cnc(N3CCOCC3)c3nc(COc4ccc5ccccc5n4)cn23)no1` [Cpd 75, 3-(8-Morpholino-2-((quinolin-2-yloxy)methyl)imidazo[1,2-a]pyrazin-5-yl)-1,2,4-oxadiazol-5-ol], the concentration for half-maximal inhibition (IC50) in test [1] and in test [2] was less than 1 nM throughout.

On to `c1ccc2nc(CCc3cn4c(-c5ccc(-c6nnn[nH]6)nc5)cnc(N5CCOCC5)c4n3)ccc2c1` [Cpd 77, 4-(5-(6-(1H-Tetrazol-5-yl)pyridin-3-yl)-2-(2-(quinolin-2-yl)ethyl)imidazo[1,2-a]pyrazin-8-yl)morpholine], for which the IC50 in test [1] was less than 30 nM; in test [2], 1 nM.

With `CS(=O)(=O)Nc1ccc(-c2cnc(N3CCOCC3)c3nc(CCc4ccc5ccccc5n4)cn23)cn1` [Cpd 78, N-(5-(8-Morpholino-2-(2-(quinolin-2-yl)ethyl)imidazo[1,2-a]pyrazin-5-yl)pyridin-2-yl)methanesulfonamide], the IC50 in test [1] is less than 1 nM; in test [2] it was 1 nM.

Consider `Oc1nc2ncc(-c3cnc(N4CCOCC4)c4nc(CCc5ccc6ccccc6n5)cn34)cc2[nH]1` [Cpd 79, 6-(8-Morpholino-2-(2-(quinolin-2-yl)ethyl)imidazo[1,2-a]pyrazin-5-yl)-1H-imidazo[4,5-b]pyridin-2-ol], for which the IC50 in test [1] is 33 nM; in test [2], 7 nM.

Regarding `C(=C\c1cn2c(-c3ccc(N4CCNCC4)nc3)cnc(C3CCOCC3)c2n1)/c1ccc2ccccc2n1` [Cpd 80, (E)-2-(2-(5-(6-(piperazin-1-yl)pyridin-3-yl)-8-(tetrahydro-2H-pyran-4-yl)imidazo[1,2-a]pyrazin-2-yl)vinyl)quinoline trifluoroacetic acid salt], the half-inhibitory concentration (IC50) amounted to 562 nM in test [1] and 617 nM in test [2].

Consider `COc1cc(-c2ncc(-c3ccc(N4CCNCC4)nc3)n3cc(/C=C/c4ccc5ccccc5n4)nc23)ccn1` [Cpd 81], for which the values for the IC50 in test [1] and in test [2] were 91 nM and 245 nM, respectively.

As for `COc1cc(-c2ncc(-c3ccc(N4CCNCC4)nc3)n3cc(COc4ccc5ccccc5n4)nc23)ccn1` [Cpd 82], the results for the IC50 in test [1] and in test [2] were 245 nM and 282 nM, respectively.

Take `NC(=O)c1ccc(-c2cnc(N3CCOCC3)c3nc(COc4ccc5ccccc5n4)cn23)cn1` [Cpd 84, 5-(8-Morpholino-2-((quinolin-2-yloxy)methyl)imidazo[1,2-a]pyrazin-5-yl)picolinamide]: the concentration for half-maximal inhibition (IC50) is 8 nM in test [1] and 16 nM in test [2].

For the compound `CS(=O)(=O)Nc1ccc(-c2cnc(N3CCOCC3)c3nc(COc4ccc5ccccc5n4)cn23)cn1` [Cpd 85, N-(5-(8-Morpholino-2-((quinolin-2-yloxy)methyl)imidazo[1,2-a]pyrazin-5-yl)pyridin-2-yl)methanesulfonamide], the IC50 in test [1] is 2 nM; in test [2] it was 1 nM.

Regarding `NS(=O)(=O)c1ccc(-c2cnc(N3CCOCC3)c3nc(COc4ccc5ccccc5n4)cn23)cn1` [Cpd 86, 5-(8-Morpholino-2-((quinolin-2-yloxy)methyl)imidazo[1,2-a]pyrazin-5-yl)pyridine-2-sulfonamide trifluoroacetic acid salt], the 50% inhibitory concentration (IC50) in test [1] worked out at 16 nM; in test [2], 14 nM.

For the compound `NS(=O)(=O)c1ccc(-c2cnc(N3CCOCC3)c3nc(COc4ccc5ccccc5n4)cn23)cc1` [Cpd 87, 4-(8-Morpholino-2-((quinolin-2-yloxy)methyl)imidazo[1,2-a]pyrazin-5-yl)benzenesulfonamide], the IC50 is 2 nM in test [1] and 1 nM in test [2].

For the compound `CC(=O)NS(=O)(=O)c1ccc(-c2cnc(N3CCOCC3)c3nc(COc4ccc5ccccc5n4)cn23)cc1` [Cpd 88, N-((4-(8-Morpholino-2-((quinolin-2-yloxy)methyl)imidazo[1,2-a]pyrazin-5-yl)phenyl)sulfonyl)acetamide], the IC50 in test [1] stood at 12 nM; in test [2], 9 nM.

These data come from patent publication US9249163B2, “PDE10a inhibitors for the treatment of type II diabetes” (Janssen Pharmaceutica, NV, priority 2013, dated 2016).
